Test results from patent US20110082162A1, “SYNERGISTIC FUNGICIDAL COMPOSITION CONTAINING 5-FLUOROCYTOSINE FOR FUNGAL CONTROL IN CEREALS” (DOW AGROSCIENCES LLC, priority 2009, published 2011).

Legend:
[1] = system: Septoria tritici (SEPTTR; Mycosphaerella graminicola); assay: 1-day protectant (1DP) test vs. leaf blotch of wheat, fungicide applied 1 day before inoculation; format: in vivo, Septoria tritici on wheat plants (variety Yuma); conditions: Zymoseptoria tritici, read-out: % DC Obs (percent disease control observed)
Procedure: (§1) Evaluation of Curative and Protectant Activity of Fungicide Mixtures vs. Leaf Blotch of Wheat (Mycosphaerella graminicola; anamorph: Septoria tritici; Bayer code: SEPTTR)
(§2) Wheat plants (variety Yuma) were grown from seed in a greenhouse in plastic pots with a surface area of 27.5 square centimeters (cm2) containing 50% mineral soil/50% soil-less Metro mix, with 8-12 seedlings per pot. The plants were employed for testing when the first leaf was fully emerged, which typically took 7 to 8 days after planting. Test plants were inoculated with an aqueous spore suspension of Septoria tritici either 3 days prior to (3-day curative test; 3DC) or 1 day after fungicide treatments (1-day protectant test; 1DP). After inoculation the plants were kept at 100% relative humidity (one day in a dark dew chamber followed by two days in a lighted mist chamber) to permit spores to germinate and infect the leaf. The plants were then transferred to a greenhouse until disease symptoms were fully expressed.
(§3) Treatments consisted of fungicides, including a compound of Formula I, epoxiconazole, prothioconazole, azoxystrobin, pyraclostrobin, penthiopyrad, isopyrazam, bixafen, boscalid, chlorothalonil and isobutyric acid (3S,6S,7R,8R)-8-benzyl-3-[(3-isobutyryloxymethoxy-4-methoxypyridine-2-carbonyl)-amino]-6-methyl-4,9-dioxo-[1,5]dioxonan-7-yl ester (compound A), applied either individually or as two-way mixtures with a compound of Formula I. 1% of water solution of a compound with Formula I was used in the tests. Technical grades of other materials were dissolved in acetone to make stock solutions, which were then used to perform three-fold dilutions in acetone either for each individual fungicide component or for the two-way mixtures. Desired fungicide rates were obtained after mixing dilutions with nine volumes of water containing 110 parts per million (ppm) Triton X-100. Ten milliliter (mL) fungicide solutions were applied onto six pots of plants using an automated booth sprayer, which utilized two 6218-1/4 JAUPM spray nozzles operating at 20 pounds per square inch (psi) set at opposing angles to cover both leaf surfaces. All sprayed plants were allowed to air dry prior to further handling. Control plants were sprayed in the same manner with the solvent blank.
(§4) When disease reached 80 to 100% on the control plants, infection levels were assessed on treated plants visually and scored on a scale of 0 to 100 percent. Percentage of disease control was then calculated using the ratio of disease on treated plants relative to control plants.
(§5) Colby's equation was used to determine the fungicidal effects expected from the mixtures. (See Colby, S. R. Calculation of the synergistic and antagonistic response of herbicide combinations. Weeds 1967, 15, 20-22.)
(§6) The following equation was used to calculate the expected activity of mixtures containing two active ingredients, A and B:
(§7) A=observed efficacy of active component A at the same concentration as used in the mixture;
(§8) B=observed efficacy of active component B at the same concentration as used in the mixture.

[2] = system: Septoria tritici (SEPTTR; Mycosphaerella graminicola); assay: 3-day curative (3DC) test vs. leaf blotch of wheat, inoculation 3 days before fungicide treatment; format: in vivo, Septoria tritici on wheat plants (variety Yuma); conditions: Zymoseptoria tritici, read-out: % DC Obs (percent disease control observed); for pest or weed control at 0.6 ppm: applied alone at 0.6 ppm; for pest or weed control at 1.8 ppm: applied alone at 1.8 ppm
Procedure: as §1, §2, §3, §4, §5, §6, §7, §8

[3] = 1DP SEPTTR, applied alone at 0.6 ppm
[4] = 1DP SEPTTR, applied alone at 1.8 ppm

## Fc1ccc([C@]2(Cn3cncn3)O[C@H]2c2ccccc2Cl)cc1 (racemic) [Epoxiconazole, rel-1-[[(2R,3S)-3-(2-chlorophenyl)-2-(4-fluorophenyl)oxiranyl]methyl]-1H-1,2,4-triazole]
[1]; 1DP SEPTTR, applied alone at 0.0375 ppm
  pest or weed control at 0.0375 ppm: 15%
[1]; 1DP SEPTTR, applied alone at 0.125 ppm
  pest or weed control at 0.125 ppm: 27%

## CO/C=C(/C(=O)OC)c1ccccc1Oc1cc(Oc2ccccc2C#N)ncn1 [Azoxystrobin, methyl (αE)-2-[[6-(2-cyanophenoxy)-4-pyrimidinyl]oxy]-α-(methoxymethylene)benzeneacetate]
[1]; [3]
  pest or weed control at 0.6 ppm: 21%
[1]; [4]
  pest or weed control at 1.8 ppm: 32%
[2]; 3DC SEPTTR
  pest or weed control at 0.6 ppm: 22%
  pest or weed control at 1.8 ppm: 59%

## Cn1cc(C(=O)Nc2ccc(F)cc2-c2ccc(Cl)c(Cl)c2)c(C(F)F)n1 [Bixafen, N-(3′,4′-dichloro-5-fluoro[1,1′-biphenyl]-2-yl)-3-(difluoromethyl)-1-methyl-1H-pyrazole-4-carboxamide]
[1]
  pest or weed control at 0.6 ppm: 14%
  pest or weed control at 1.8 ppm: 71%

## O=C(Nc1ccccc1-c1ccc(Cl)cc1)c1cccnc1Cl [Boscalid, 2-chloro-N-(4′-chloro[1,1′-biphenyl]-2-yl)-3-pyridinecarboxamide]
[1]; [4]
  pest or weed control at 1.8 ppm: 9%
[2]; 3DC SEPTTR
  pest or weed control at 1.8 ppm: 8%

## N#Cc1c(Cl)c(Cl)c(Cl)c(C#N)c1Cl [Chlorothalonil, 2,4,5,6-tetrachloro-1,3-benzenedicarbonitrile]
[1]; 1DP SEPTTR, applied alone at 13.5 ppm
  pest or weed control at 13.5 ppm: 13%
[1]; 1DP SEPTTR, applied alone at 42 ppm
  pest or weed control at 42 ppm: 8%
[2]; 3DC SEPTTR, applied alone at 13.5 ppm
  pest or weed control at 13.5 ppm: 0%
[2]; 3DC SEPTTR, applied alone at 42 ppm
  pest or weed control at 42 ppm: 0%

## COc1ccnc(C(=O)N[C@H]2COC(=O)[C@H](Cc3ccccc3)[C@@H](OC(=O)C(C)C)[C@H](C)OC2=O)c1OCOC(=O)C(C)C [Compound A, Isobutyric acid (3S,6S,7R,8R)-8-benzyl-3-[(3-isobutyryloxymethoxy-4-methoxy-pyridine-2-carbonyl)-amino]-6-methyl-4,9-dioxo-[1,5]dioxonan-7-yl ester]
[2]
  pest or weed control at 1.35 ppm: 6%

## Nc1nc(O)ncc1F [Compound I, 5-FLUOROCYTOSINE]
[1]; 1DP SEPTTR, applied alone at 0.03 ppm
  pest or weed control at 0.03 ppm: 13%
[1]; 1DP SEPTTR, applied alone at 0.1 ppm
  pest or weed control at 0.1 ppm: 11%
[1]; 1DP SEPTTR, applied alone at 0.3 ppm
  pest or weed control at 0.3 ppm: 8%
[1]; 1DP SEPTTR, applied alone at 0.9 ppm
  pest or weed control at 0.9 ppm: 18%
[1]; 1DP SEPTTR, applied alone at 2.8 ppm
  pest or weed control at 2.8 ppm: 79%
[2]; 3DC SEPTTR, applied alone at 0.03 ppm
  pest or weed control at 0.03 ppm: 4%
[2]; 3DC SEPTTR, applied alone at 0.1 ppm
  pest or weed control at 0.1 ppm: 33%
[2]; 3DC SEPTTR, applied alone at 0.3 ppm
  pest or weed control at 0.3 ppm: 67%
[2]; 3DC SEPTTR, applied alone at 0.9 ppm
  pest or weed control at 0.9 ppm: 75%
[2]; 3DC SEPTTR, applied alone at 2.8 ppm
  pest or weed control at 2.8 ppm: 94%

## CC(C)C1C2CCC1c1c(NC(=O)c3cn(C)nc3C(F)F)cccc12 (stereo not drawn) [Isopyrazam, 3-(difluoromethyl)-1-methyl-N-[1,2,3,4-tetrahydro-9-(1-methylethyl)-1,4-methanonaphthalen-5-yl]-1H-pyrazole-4-carboxamide]
[1]
  pest or weed control at 0.06 ppm: 5%
  pest or weed control at 0.2 ppm: 9%
  pest or weed control at 0.6 ppm: 19%
[2]
  pest or weed control at 0.06 ppm: 22%

## CC(C)CC(C)c1sccc1NC(=O)c1cn(C)nc1C(F)(F)F (stereo not drawn) [Penthiopyrad, N-[2-(1,3-dimethylbutyl)-3-thienyl]-1-methyl-3-(trifluoromethyl)-1H-pyrazole-4-carboxamide]
[1]; [3]
  pest or weed control at 0.6 ppm: 7%
[1]; [4]
  pest or weed control at 1.8 ppm: 30%
[2]; 3DC SEPTTR
  pest or weed control at 1.8 ppm: 24%

## OC(Cc1ccccc1Cl)(Cn1[nH]cnc1=S)C1(Cl)CC1 (stereo not drawn) [Prothioconazole, 2-[2-(1-chlorocyclopropyl)-3-(2-chlorophenyl)-2-hydroxypropyl]-1,2-dihydro-3H-1,2,4-triazole-3-thione]
[1]; [3]
  pest or weed control at 0.6 ppm: 18%
[1]; [4]
  pest or weed control at 1.8 ppm: 25%
[2]; 3DC SEPTTR
  pest or weed control at 0.6 ppm: 12%
  pest or weed control at 1.8 ppm: 25%
